Data from patent US20080176952A1, “Management of Ophthalmologic Disorders, Including Macular Degeneration” (priority 2004, published 2008).

Experiments:
RPE65 = target: T1, RPE65 (Bos taurus, UniProt Q28175); assay: Fluorescence binding assay of retinoids and analogs to purified RPE65; set-up: species or system bovine; details: antagonist of RPE65; read-out: KD
T1 construct: Frozen bovine eyecups devoid of retinas were purchased from W. L. Lawson Co; tissue W. L. Lawson Co; host or cells: bovine eyecups (retinal pigment epithelium)
T1 sequence (Q28175 whole entry): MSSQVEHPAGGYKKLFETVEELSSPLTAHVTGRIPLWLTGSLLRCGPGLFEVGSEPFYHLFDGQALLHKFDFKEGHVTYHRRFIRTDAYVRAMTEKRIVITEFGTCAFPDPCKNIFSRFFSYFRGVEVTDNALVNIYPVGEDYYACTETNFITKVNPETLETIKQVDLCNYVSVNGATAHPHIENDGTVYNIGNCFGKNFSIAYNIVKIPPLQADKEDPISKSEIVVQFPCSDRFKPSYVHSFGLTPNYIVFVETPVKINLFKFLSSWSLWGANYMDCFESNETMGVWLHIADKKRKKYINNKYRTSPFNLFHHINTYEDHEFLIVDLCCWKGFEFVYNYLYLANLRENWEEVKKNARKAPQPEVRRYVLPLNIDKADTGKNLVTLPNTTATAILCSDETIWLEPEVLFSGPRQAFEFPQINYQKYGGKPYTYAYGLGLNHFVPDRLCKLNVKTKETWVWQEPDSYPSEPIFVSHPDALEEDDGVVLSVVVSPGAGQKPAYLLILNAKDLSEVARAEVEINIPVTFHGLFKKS
Description: Purification of mRPE65, sRPE65 and rHRPE65: Purification was performed as described before (Ma et al., 2001). The purities of these proteins were verified by silver staining or Coomassie staining and Western blot (1:4000 primary antibody-1 h at room temperature and 1:4000 secondary antibody-0.5 h at room temperature).
(§1) Fluorescence binding assays: RPE65 in PBS, 1% CHAPS, pH 7.4 was used in the fluorometric titration studies. Protein concentrations were measured by a modified Lowry method (Lowry et al., 1951). All titrations were performed at 25° C. The samples in PBS buffer were excited at 280 nm and the fluorescence was scanned from 300 to 500 nm. Fluorescence measurements, using 450 μL quartz cuvettes with a 0.5 cm path length, were made at 25° C. on a Jobin Yvon Instruments, Fluoromax 2 employing the right-angle detection method.
(§2) The fluorescence of the protein solution was measured after equilibrating it at 25° C. for 10 min. The sample was then titrated with a solution of retinoid dissolved in dimethyl sulfoxide. In each titration, to a 250 μL solution of the protein an equal amount of retinoid, typically 0.2 μL. was added and thoroughly mixed before allowing it to equilibrate for 10 min prior to recording the fluorescence intensity. […] The binding constant (KD) was calculated from the fluorescence intensity by using the following equation (Gollapalli et al., 2003).
where P0=Total protein concentration,
n=number of independent binding sites, R0=Total retixioid concentration at each addition, KD=dissociation constant, Fmax=Fluorescence intensity at saturation, and F0=Initial fluorescence intensity.

mouse RPE65 = assay: Constants of affinity (Kds) for mouse RPE65; type: binding; details: read-out: Kd (constant of affinity) for mouse RPE65
Description: as §1, §2
The constants of affinity (Kds) of several compounds for mouse RPE65 were determined. […] Thus, the potency of binding is a function of the ester chain length, i.e., the longer the chain length, the stronger the affinity for RPE65 is and the stronger the antagonist is.

A2E accumulation = assay: In vivo A2E accumulation in abcr knockout mice; details: for A2E accumulation / iso-A2E accumulation / total (A2E + iso-A2E) accumulation: 50 mg/kg once or twice a week, 2 to 2½ months; for reduction of A2E accumulation / reduction of iso-A2E accumulation / reduction of total A2E accumulation: versus no drug
Description: Effects on accumulation of A2E in abcr knockout mice by farnesyl decyl ketone and N-palmityl farnesimide were investigated. Mice were injected with 50 mg/kg drug in 25 microliters of DMSO or with only DMSO for the control group once or twice a week. After 2 to 2½ months, the mice were sacrificed, and A2E and iso-A2E were harvested and quantitated from 4 eyes for each drug or control.

A2E formation = assay: In vitro A2E formation in the presence of aromatic amine
Description: 100 mg (355 μmoles) of all-trans-retinal was dissolved in 3 mL followed by the addition of 9.5 μL of glacial acetic acid 9.5 μL of ethanolamine (155 μmoles). This solution was aliquoted into 300 μL fractions. 3-aminoethylbenzoate (15.5 μmoles) was added to the samples at 0, 2, 3.75, 14, 16.25, 18.0833 19.917 23.75 and 48 hrs. […] The solutions were shaken at room temperature for 48 hrs. The solutions were then kept at −80° C. and 15 μL was diluted to 250 μL (methanol). The solutions (15 μL) were then analyzed on a reverse phase (C18-5 μm-4.6 mm×150 mm) column on a linear gradient 85%-96% methanol/water and UV detector at 430 nm to determine the amount of A2E formation. The percent A2E formation was compared to A2E formation at 48 h in the absence of aromatic amine.

| Compound | Kd (RPE65) | other results |
| --- | --- | --- |
| CCCCCCCCCC(=O)CC/C=C(C)/C=C/C=C(C)/C=C/C1=C(C)CCCC1(C)C | 173 nM |  |
| CC(=O)OC/C=C(C)/C=C/C=C(C)/C=C/C1=C(C)CCCC1(C)C [retinyl acetate] | 1300 nM | Kd (mouse RPE65): 1300 nM |
| CCCCCCCCCCCCCCCC(=O)OC/C=C(C)/C=C/C1=C(C)CCCC1(C)C [β-ionoacetyl palmitate] | 153 nM |  |
| CCCCCCCCCCC(=O)CC=C(C)CCC=C(C)CCC=C(C)C [farnesyl decyl ketone] |  | A2E accumulation (A2E accumulation): 2.00 pmoles/eye; iso-A2E accumulation (A2E accumulation): 0.66 pmoles/eye; total (A2E + iso-A2E) accumulation (A2E accumulation): 2.66 pmoles/eye; reduction of A2E accumulation (A2E accumulation): over 80%; reduction of iso-A2E accumulation (A2E accumulation): about 74%; reduction of total A2E accumulation (A2E accumulation): about 80% |
| CCCCCCCCCC(=O)CC/C=C(\C)CC/C=C(\C)CCC=C(C)C | 56 nM |  |
| CCCCCCCCCCCCCCCCC(=O)/C=C(C)/C=C/C=C(C)/C=C/C1=C(C)CCCC1(C)C [palmityl retinyl ketone] | 64 nM |  |
| CCCCCCCCCCCCCCCC(=O)CC/C=C(\C)CC/C=C(\C)CCC=C(C)C | 96 nM |  |
| CC(=O)/C=C(C)/C=C/C=C(C)/C=C/C1=C(C)CCCC1(C)C [methyl retinyl ketone] | 3790 nM |  |
| COCCOCCOC/C=C(C)/C=C/C=C(C)/C=C/C1=C(C)CCCC1(C)C [retinyl [2-(2′-methoxy)ethoxy]ethyl ether] | 486 nM |  |
| CCCCCCCCCCCCCCCCNC(=O)/C=C(C)/C=C/C=C(C)/C=C/C1=C(C)CCCC1(C)C [N-palmityl retinimide] | 40 nM |  |
| CCCCCCOC/C=C(C)/C=C/C=C(C)/C=C/C1=C(C)CCCC1(C)C [hexyl retinyl ether] | 151 nM |  |
| CCCCCCCCCCCCCCCC(=O)CC/C=C(C)/C=C/C=C(C)/C=C/C1=C(C)CCCC1(C)C [4f] | 64 nM | Kd (mouse RPE65): 64 nM |
| COC/C=C(C)/C=C/C=C(C)/C=C/C1=C(C)CCCC1(C)C [methyl retinyl ether] | 24 nM |  |
| CCCCCCCCCCCCCCCC(=O)NC/C=C(\C)CC/C=C(\C)CCC=C(C)C | 56 nM |  |
| CCCCCCCCCCCCCCCCNC(=O)C/C=C(\C)CC/C=C(\C)CCC=C(C)C [N-palmityl farnesimide] |  | A2E accumulation (A2E accumulation): 5.38 pmoles/eye; iso-A2E accumulation (A2E accumulation): 1.70 pmoles/eye; total (A2E + iso-A2E) accumulation (A2E accumulation): 7.09 pmoles/eye; reduction of A2E accumulation (A2E accumulation): over 50%; reduction of iso-A2E accumulation (A2E accumulation): about 33%; reduction of total A2E accumulation (A2E accumulation): about 47% |
| CCCCCCCCCCCCCCCC(=O)OC/C=C(\C)CCC=C(C)C [geranyl palmitate] | 301 nM |  |
| CCCCCCCCCCCCCCCCOC/C=C(\C)CCC=C(C)C [geranyl palmityl ether] | 416 nM |  |
| CCCCCCCCCCCCCCCC(=O)OC/C=C(\C)CC/C=C(\C)CCC=C(C)C [farnesyl palmitate] | 63 nM |  |
| CC1=C(/C=C/C(C)=C/C=C/C(C)=C/C(=O)N(C)C)C(C)(C)CCC1 [N,N-dimethyl retinimide] | 3580 nM |  |
| CCCCCCCCCCCCCCCC(=O)OC/C=C(\C)CC/C=C(\C)CC/C=C(\C)CCC=C(C)C [geranylgeranyl palmitate] | 213 nM |  |
| CCCCCCCCCCCCCCCCC(O)/C=C(C)/C=C/C=C(C)/C=C/C1=C(C)CCCC1(C)C (stereo not shown) [palmityl retinyl alcohol] | 170 nM |  |
| CCCCCCCCCCCCCCCCOC/C=C(\C)CC/C=C(\C)CC/C=C(\C)CCC=C(C)C [geranylgeranyl palmityl ether] | 195 nM |  |
| CCCCCCCCCCCCCCCC(=O)NC/C=C(C)/C=C/C=C(C)/C=C/C1=C(C)CCCC1(C)C [4e] |  | Kd (mouse RPE65): 40 nM |
| CCCCCCCCCCCCCCCCOC/C=C(C)/C=C/C=C(C)/C=C/C1=C(C)CCCC1(C)C [palmityl retinyl ether] | 25 nM | Kd (mouse RPE65): 21 nM |
| CC1=C(/C=C/C(C)=C/C=C/C(C)=C/C(=O)NC(C)(C)C)C(C)(C)CCC1 [N-tert-butyl retinimide] | 4320 nM |  |
| CCCCCCCCCCCCCCCCOC/C=C(C)/C=C/C1=C(C)CCCC1(C)C [β-ionoacetyl palmityl ether] | 156 nM |  |
| CC(=O)CC/C=C(C)/C=C/C=C(C)/C=C/C1=C(C)CCCC1(C)C | 3790 nM |  |
| CCOC(=O)c1cccc(N)c1 [3-aminoethylbenzoate, ethyl 3-aminobenzoate] |  | A2E formation % formation (48 Hrs = 100) (A2E formation; aromatic amine added at 0 hrs, read at 48 hrs): 3.98%; A2E formation % formation (48 Hrs = 100) (A2E formation; aromatic amine added at 2 hrs, read at 48 hrs): 8.67%; A2E formation % formation (48 Hrs = 100) (A2E formation; aromatic amine added at 3.75 hrs, read at 48 hrs): 7.71%; A2E formation % formation (48 Hrs = 100) (A2E formation; aromatic amine added at 14 hrs, read at 48 hrs): 19.73%; A2E formation % formation (48 Hrs = 100) (A2E formation; aromatic amine added at 16.25 hrs, read at 48 hrs): 19.25%; A2E formation % formation (48 Hrs = 100) (A2E formation; aromatic amine added at 18.0833 hrs, read at 48 hrs): 23.70%; A2E formation % formation (48 Hrs = 100) (A2E formation; aromatic amine added at 19.91667 hrs, read at 48 hrs): 27.65%; A2E formation % formation (48 Hrs = 100) (A2E formation; aromatic amine added at 23.75 hrs, read at 48 hrs): 22.44%; A2E formation % formation (48 Hrs = 100) (A2E formation; aromatic amine added at 48 hrs, reference = 100): 100.00% |
| retinyl hexanoate | 235 nM | Kd (mouse RPE65): 235 nM |
| CCCCCCCCCCCCCCCCOC/C=C(\C)CC/C=C(\C)CCC=C(C)C [farnesyl palmityl ether] | 60 nM |  |
